In patent US20110269790A1, “NOVEL THIENOPYRIDINES AS PHARMACOLOGICALLY ACTIVE AGENTS” (priority 2009, published 2011):

Columns and labels:
TNF-α = TNF-α in rat paw tissue, FCA model (ELISA); type: in vivo; details: termination day
Description: (§1) Group I—Normal Control; Group II—Arthritic control; Group III—Arthritic rats administered with Synthetic compound BN-4; Group IV—arthritic rats administered with compound BN-14; Group V—arthritic rats administered with BN-16; Group VI—arthritic rats administered with standard drug indomethacin. Administration of test compounds and indomethacin started on the same day of adjuvant injection at the dose of 100 and 2.5 mg/kg respectively. The test and indomethacin doses continued up to 21 days in FCA induced model and 24 days in collagen induced model. During the study period the paw volumes were measured on 5th, 12th, 18th and 21 st days and the weight of the animals was also recorded at different time intervals. At each time point the percentage of inhibition of paw volume was calculated with reference to mean paw volume of control group In FCA model, animals were sacrificed on 21st day by cervical dislocation. Before sacrificing the animals, blood was collected and used for estimation of total leukocyte count, TNF-α and IL-1β.
(§2) In FCA induced study paw tissues were collected on termination day and estimated TNF-α and IL-1β levels for all the groups by ELISA method.

IL-1β [1] = test: IL-1β in rat paw tissue and serum, FCA model (ELISA); type: in vivo; design: % Inhibition (IL-1 Beta) / Percentage of Inhibition (IL-1 Beta): concentration or dose not given beside the values; details: for % Inhibition (IL-1 Beta): FCA model
Description: as §1, §2
On termination day blood samples were collected and serum was used for the estimation of Both TNF-α and IL-1β levels in FCA and Collagen induced studies. Both the parameters were determined using ELISA kits. TNF-α could not be determined as their expression is very less in serum samples of the rats in the two models studied, where as IL-1β expression in serum was good. Daily treatment of synthetic compounds by oral administration was effective in reducing the serum IL-1β levels (P<0.01) when compared with arthritic control group.

rats = test: Acute oral toxicity, sighting study in rats; type: in vivo, rat; details: for Toxic symptoms and mortality, sighting study: single oral doses 5, 50, 500, and 2000 mg/kg, observed 14 days
Description: In the series of thioenopyridine derivatives compounds BN-4, BN-14 and BN-16 show good antiinflammatory potential in all models tested. […] Acute Oral Toxicity Study was conducted following OECD guidelines by fixed dose method adopted by OECD (420). The study involved preliminary sighting using small number of animals in order to derive the dose effect relation for toxicity and mortality and to provide information on dose selection for the main study.
In the preliminary sighting study, the effect of various dosed administered to single animals of each sex was investigated in a sequential manner. The sighting study generally yields information on the dose-toxicity relationship including an estimate of the minimum lethal dose. In the main study, the test article is administered to groups of 5 males and 5 female animals at one of the fixed doses (5, 50, 500 and 2000 mg/Kg). The dose is derived from the sighting study. It is immediately below that which is expected to result in mortality. If evident toxicity is not seen at the chosen dose level, the substance should be retested at the next higher dose level. If at the initial dose level, animals die, or a severe toxicity reaction requires removal of animals from the study for animal welfare reasons, the substance is retested at the next lower dose level. Consideration of data from the both sighting study and the main study enabled a judgment to be made on determination of maximum tolerated dose.
Sighting Study: Animals were fasted overnight. Following period of fasting, the animals were weighed and were administered the test articles by oral route. After the test substance was administered food was withheld for further 3 to 4 hrs. In the sighting study, the effect of various doses was investigated in single animals of each sex. Dosing was sequential allowing at least 24 hrs before dosing the next animal. All animals were carefully observed for signs and symptoms of toxicity continuously up to 24 hrs and later up to 7 days. […] In this sighting study, the dose that produced evident toxicity but not death was identified. […]

IL-1β [2] = test: IL-1β assay in murine macrophage cell line; type: cell-based, mouse; details: 50, 25, 12.5 μg/ml with LPS
Description: Cell Culture and Treatment: The RAW 264.7 (mouse macrophages, national center for cellular sciences) cells were grown in plastic T-25 culture flask in Dulbeccos modified eagles medium (DMEM) without phenol red supplemented with 10% heat activated serum (heating at 57° C. for 30 minutes, 100 μg per ml penicillin, 200 μg per ml streptomycin, 2 mmol L-glutamine, 1% antibiotic/Anti mycotic solution (GIBCO/SRL) under 5% co2 with 85% relative humidity at 37° C. After 2-3 days cells were removed from the culture flask by tripsinizing the cells with Trypsin EDTA solution. Cell count and viability was performed using a standard Trypan blue dye exclusion method. The cell concentration was adjusted to 1×10^5 cells per ml in each well with the same media in the 12 well plates. After 24 hrs incubation the media was removed from each well replaced with a fresh one containing different concentrations (50 μg, 25 μg, 12.5 μg) of the synthetic compounds BN-4, BN-14 and BN-16 along with 10 μg/ml LPS, where as normal control (PBS) and positive controls (Dexa, Roli) LPS (10 μg/ml), were added. 200 μl of media from each well was collected at 6 hrs for the estimation of TNF-α and after 24 hrs for Nitric Oxide respectively. The adherent cells, which remained after removing the media was subjected to […] for determining the cytotoxicity of compounds at selected concentrations
To determine the mechanism of action all test compounds were screened for invitro anti-inflammatory methods, which include TNF-a and IL-1b and Nitric Oxide. […] TNF-a is a pleiotropic cytokine, which plays a critical role in both acute and chronic inflammation (Holtzmann et al., 2002). Several inflammagens have the ability of inducing the synthesis of TNF-a. Formation of a number of small molecular mediators of inflammation is linked with TNF-a and contributes to the range of mediators that critically control inflammation. TNF-a facilitates inflammatory cell infiltration by promoting the adhesion of neutrophils and lymphocytes to endothelial cells (Dinarello, 1997).

[3] = paw tissue, termination day (21st day), BN compounds 100 mg/kg, indomethacin 2.5 mg/kg
[4] = rat serum, termination day, FCA induced arthritis

Row | SMILES | % Inhibition (TNF-α) (TNF-α) [%] | IL-1 Beta concentration (IL-1β [1]; [3]) | % Inhibition (IL-1 Beta) (IL-1β [1]; paw tissue, termination day) [%] | IL-1 Beta concentration (IL-1β [1]; [4]) | Percentage of Inhibition (IL-1 Beta) (IL-1β [1]; [4]) [%] | Toxicity, sighting study (rats; doses 2000 and 1250 mg/kg in rats) | Production of IL-1β from murine macrophage cell line (IL-1β [2]) | Toxic symptoms and mortality, sighting study (rats)
1 | Nc1c2c(nc3sc4c(c13)CCC4)CCCC2 [BN-14, 2,3,6,7,8,9-Hexahydro-1H-cyclopenta[4,5]thieno[2,3-b]quinolin-10-amine] | 38.03 ± 9.73 | 113.0 ± 26.8 ng/gm of tissue | 38.49 ± 14.97 | 50.83 ± 6.11 Pg/ml of tissue | 22.17 ± 6.51 | toxic | inhibitory effect | –
2 | Nc1c2c(nc3sc4c(c13)CCC4)CCCCC2 [BN-16, 1,2,3,6,7,8,9,10-Octahydrocyclohepta[b]cyclopenta[4,5]thieno[3,2-e]pyridine-11-amine] | 37.42 ± 5.57 | 68.87 ± 21.1 ng/gm of tissue | 40.51 ± 9.56 | 17.0 ± 4.50 Pg/ml of tissue | 32.48 ± 6.22 | – | inhibitory effect | do not show any toxic symptoms and mortality
3 | COc1ccc2c(c1)c(CC(=O)O)c(C)n2C(=O)c1ccc(Cl)cc1 [Indomethacin, reference compound] | 29.06 ± 0.06 | 81.02 ± 17.98 ng/gm of tissue | 40.42 ± 8.73 | 46.0 ± 7.91 Pg/ml of tissue | 20.04 ± 5.33 | – | – | –
4 | Cc1sc2nc3c(c(N)c2c1C)CCCCC3 [BN-4, 2,3-dimethyl-6,7,8,9-tetrahydro-5H-cyclohepta[b]thieno[3,2-e]pyridin-4-amine] | 42.9 ± 3.78 | 92.07 ± 10.70 ng/gm of tissue | 33.59 ± 5.53 | 22.83 ± 9.93 Pg/ml of tissue | 29.28 ± 3.60 | – | inhibitory effect | do not show any toxic symptoms and mortality
